Target: ERK2 (Homo sapiens, UniProt P28482)
Assay: ERK2 inhibition assay (spectrophotometric coupled-enzyme assay)
Type: biochemical
Details: activated ERK2 10 nM, 65 μM ATP, 200 μM erktide peptide, 30° C., pH 7.5
Protocol: Compounds were assayed for the inhibition of ERK2 by a spectrophotometric coupled-enzyme assay (Fox et al (1998) Protein Sci 7, 2249). In this assay, a fixed concentration of activated ERK2 (10 nM) was incubated with various concentrations of the compound in DMSO (2.5%) for 10 min. at 30° C. in 0.1 M HEPES buffer, pH 7.5, containing 10 mM MgCl2, 2.5 mM phosphoenolpyruvate, 200 μM NADH, 150 μg/mL pyruvate kinase, 50 μg/mL lactate dehydrogenase, and 200 μM erktide peptide. The reaction was initiated by the addition of 65 μM ATP. The rate of decrease of absorbance at 340 nm was monitored. The Ki and IC50 were evaluated from the rate data as a function of inhibitor concentration.

ERK2, sequence (P28482 whole entry, species assumed): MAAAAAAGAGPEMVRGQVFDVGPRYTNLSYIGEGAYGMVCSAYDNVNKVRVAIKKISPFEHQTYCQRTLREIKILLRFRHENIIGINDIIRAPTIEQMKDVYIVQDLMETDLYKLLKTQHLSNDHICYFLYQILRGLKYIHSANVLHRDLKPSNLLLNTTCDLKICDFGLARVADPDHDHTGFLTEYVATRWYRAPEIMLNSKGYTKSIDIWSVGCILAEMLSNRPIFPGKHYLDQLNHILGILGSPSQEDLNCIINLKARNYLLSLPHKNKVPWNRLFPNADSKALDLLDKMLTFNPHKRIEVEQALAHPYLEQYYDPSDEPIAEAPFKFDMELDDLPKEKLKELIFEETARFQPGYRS

Ki | SMILES
< 100 nM | Cc1cnc(-c2ccccc2)nc1-c1c[nH]c(C(=O)N[C@H](CO)c2ccccc2)c1 [Compound I-24, 4-(5-Methyl-2-phenyl-pyrimidin-4-yl)-1H-pyrrole-2 carboxylic acid (2-hydroxy-1-(S)-phenyl-ethyl)-amide]
< 100 nM | CCOc1ncc(C)c(-c2c[nH]c(C(=O)N[C@H](CO)c3ccccc3)c2)n1 [Compound I-22, 4-(5-methyl-2-ethoxy-pyrimidin-4-yl)-1H-pyrrole-2 carboxylic acid (2-hydroxy-1-(S)-phenyl-ethyl)-amide]

Reference: patent publication US7304061B2, “Heterocyclic inhibitors of ERK2 and uses thereof” (Vertex Pharmaceuticals Incorporated, priority 2002, dated 2007)
